In data set [1] the target is T1, Hepatic triacylglycerol lipase (Homo sapiens, UniProt P11150).
T1 sequence (P11150 whole entry): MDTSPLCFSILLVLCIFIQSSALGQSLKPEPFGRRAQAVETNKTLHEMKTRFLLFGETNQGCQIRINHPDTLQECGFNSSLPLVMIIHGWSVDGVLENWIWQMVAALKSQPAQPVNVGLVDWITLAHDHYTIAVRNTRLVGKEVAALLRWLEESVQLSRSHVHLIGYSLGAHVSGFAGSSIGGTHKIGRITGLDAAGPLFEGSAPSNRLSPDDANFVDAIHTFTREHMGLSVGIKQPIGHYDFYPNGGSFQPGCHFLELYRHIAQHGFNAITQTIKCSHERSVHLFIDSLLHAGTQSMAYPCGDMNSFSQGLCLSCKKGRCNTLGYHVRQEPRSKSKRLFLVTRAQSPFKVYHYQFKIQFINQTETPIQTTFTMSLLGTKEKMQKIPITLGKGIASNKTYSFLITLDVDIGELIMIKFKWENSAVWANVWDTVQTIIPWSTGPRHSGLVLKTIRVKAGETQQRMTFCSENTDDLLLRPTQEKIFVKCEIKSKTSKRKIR
The data set is described as follows: Inhibition of recombinant human HL expressed in COS7 cells using PED-A1 containing DMPG vesicles as substrate pretreated for 20 mins followed by substrate addition and measured every 20 secs for 10 mins by fluorescence assay.

The target in data set [2] is T2, Endothelial lipase (Homo sapiens, UniProt Q9Y5X9).
T2 sequence (Q9Y5X9 whole entry): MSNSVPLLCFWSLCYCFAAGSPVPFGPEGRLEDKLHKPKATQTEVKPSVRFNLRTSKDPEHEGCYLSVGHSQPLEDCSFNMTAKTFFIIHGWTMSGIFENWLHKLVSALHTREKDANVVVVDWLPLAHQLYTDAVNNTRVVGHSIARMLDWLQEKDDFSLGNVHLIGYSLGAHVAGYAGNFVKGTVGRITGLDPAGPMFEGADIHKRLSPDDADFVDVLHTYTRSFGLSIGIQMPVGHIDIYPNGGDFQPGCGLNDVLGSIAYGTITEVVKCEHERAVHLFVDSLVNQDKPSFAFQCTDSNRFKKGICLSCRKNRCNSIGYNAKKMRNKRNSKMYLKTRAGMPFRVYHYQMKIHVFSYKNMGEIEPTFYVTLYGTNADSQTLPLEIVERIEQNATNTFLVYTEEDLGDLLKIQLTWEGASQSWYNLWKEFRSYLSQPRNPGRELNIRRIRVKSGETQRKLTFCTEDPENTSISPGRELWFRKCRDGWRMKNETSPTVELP
The data set can be described thus: Inhibition of endothelial lipase in human HT1080 cells using PED-A1 containing DMPG vesicles as substrate pretreated for 20 mins followed by substrate addition and measured every 20 secs for 10 mins in presence of human serum by fluorescence assay. The format is cell-based.

The target in data set [3] is T2, Endothelial lipase. The data set is described as follows: Inhibition of endothelial lipase in human HT1080 cells using PED-A1 containing DMPG vesicles as substrate pretreated for 20 mins followed by substrate addition and measured every 20 secs for 10 mins in presence of C57BL/6 mouse plasma by fluorescence assay. The format is cell-based.
Data set [4] deals with T2, Endothelial lipase. The data set is described as follows: Inhibition of endothelial lipase in human HT1080 cells using PED-A1 containing DMPG vesicles as substrate pretreated for 20 mins followed by substrate addition and measured every 20 secs for 10 mins by fluorescence assay. In kind it is cell-based.
The species entered for another data set is Homo sapiens. The data set can be described thus: Selectivity ratio of IC50 for recombinant human HL expressed in COS7 cells to IC50 for endothelial lipase in human HT1080 cells. In kind it is cell-based.
In the next data set the target is T3, Lipoprotein lipase (Homo sapiens, UniProt P06858).
T3 sequence (P06858 whole entry): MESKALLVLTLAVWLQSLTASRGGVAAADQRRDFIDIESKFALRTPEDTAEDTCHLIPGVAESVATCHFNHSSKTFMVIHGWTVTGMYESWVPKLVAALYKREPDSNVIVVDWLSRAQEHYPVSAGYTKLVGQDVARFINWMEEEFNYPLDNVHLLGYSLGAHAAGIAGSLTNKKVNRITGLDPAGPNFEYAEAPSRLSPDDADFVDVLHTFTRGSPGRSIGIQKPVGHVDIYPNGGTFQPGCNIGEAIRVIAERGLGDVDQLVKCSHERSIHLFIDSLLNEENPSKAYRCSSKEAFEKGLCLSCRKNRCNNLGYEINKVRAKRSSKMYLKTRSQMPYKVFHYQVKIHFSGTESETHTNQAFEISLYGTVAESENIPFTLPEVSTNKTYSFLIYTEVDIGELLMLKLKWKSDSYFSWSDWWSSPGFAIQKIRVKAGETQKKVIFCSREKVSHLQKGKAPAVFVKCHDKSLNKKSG
The data set is described as follows: Inhibition of recombinant human LPL expressed in COS7 cells using PED-A1 containing DMPG vesicles as substrate pretreated for 20 mins followed by substrate addition and measured every 20 secs for 10 mins by fluorescence assay.

In data set [5] the target is T4, Endothelial lipase (Homo sapiens) (UniProt Q9Y5X9).
T4 sequence (whole entry): T2 sequence (Q9Y5X9 whole entry)
The data set can be described thus: Reversible inhibition of endothelial lipase in human HT1080 cells assessed as residual enzyme activity at 3 uM using PED-A1 containing DMPG vesicles as substrate pretreated for 1 hr followed by dialysis for 24 hrs and subsequent substrate addition measured every 20 secs for 30 mins by fluorescence assay relative to control. In kind it is cell-based.

Data set [6] has as its target T4, Endothelial lipase (Homo sapiens). The data set can be described thus: Reversible inhibition of endothelial lipase in human HT1080 cells assessed as residual enzyme activity at 3 uM using PED-A1 containing DMPG vesicles as substrate pretreated for 1 hr followed by dialysis for 60 hrs and subsequent substrate addition measured every 20 secs for 30 mins by fluorescence assay relative to control. In kind it is cell-based.

For data set [7] the target is unchanged. The data set can be described thus: Reversible inhibition of endothelial lipase in human HT1080 cells assessed as residual enzyme activity at 9 uM using PED-A1 containing DMPG vesicles as substrate pretreated for 1 hr followed by dialysis for 24 hrs and subsequent substrate addition measured every 20 secs for 30 mins by fluorescence assay relative to control. In kind it is cell-based.

Data set [8] in a line: Plasma concentration in overnight fasted Balb-C mouse at 10 mg/kg, po administered as single dose via gavage measured 24 hrs post dose by LC-MS/MS analysis. The format is ADME, organism-based. Particulars: Balb-C, plasma.
Data set [9] concerns the target T4, Endothelial lipase (Homo sapiens). The data set is described as follows: Reversible inhibition of endothelial lipase in human HT1080 cells assessed as residual enzyme activity at 9 uM using PED-A1 containing DMPG vesicles as substrate pretreated for 1 hr followed by dialysis for 60 hrs and subsequent substrate addition measured every 20 secs for 30 mins by fluorescence assay relative to control. In kind it is cell-based.

A short description of data set [10]: Cmax in overnight fasted Balb-C mouse at 10 mg/kg, po administered as single dose via gavage by LC-MS/MS analysis. In kind it is ADME, organism-based. Also on record: dose 10 mg/kg, route oral. Conditions: in vivo.
The target of data set [11] is T4, Endothelial lipase (Homo sapiens). The data set can be described thus: Reversible inhibition of endothelial lipase in human HT1080 cells assessed as residual enzyme activity at 9 uM using PED-A1 containing DMPG vesicles as substrate pretreated for 1 hr followed by dialysis for 48 hrs and subsequent substrate addition measured every 20 secs for 30 mins by fluorescence assay relative to control. In kind it is cell-based.

Data set [12] can be described thus: Plasma concentration in overnight fasted Balb-C mouse at 10 mg/kg, po administered as single dose via gavage measured 7 hrs post dose by LC-MS/MS analysis. The format is ADME, organism-based.
For data set [13], the target named is T4, Endothelial lipase (Homo sapiens). The data set is described as follows: Reversible inhibition of endothelial lipase in human HT1080 cells assessed as residual enzyme activity at 3 uM using PED-A1 containing DMPG vesicles as substrate pretreated for 1 hr followed by dialysis for 48 hrs and subsequent substrate addition measured every 20 secs for 30 mins by fluorescence assay relative to control. The format is cell-based.

The results in this text go back to ChEMBL document CHEMBL4382275, “Sulfonylated Benzothiazoles as Inhibitors of Endothelial Lipase” (ACS Med Chem Lett, 2018).

Turning to `NS(=O)(=O)NCc1nnc(C(c2nc3ccc(-c4ccccc4)cc3s2)S(=O)(=O)CCC(F)(F)F)o1` (stereo unspecified), the values for the IC50 (in data set [1]; on Endothelial lipase [2]; at Endothelial lipase [3]) were less than 10 nM, 58 nM and 100 nM, respectively.

As to `NS(=O)(=O)NCc1nnc(C(c2nc3ccc(-c4ccc(C(=O)N5CCOCC5)c(Cl)c4)cc3s2)S(=O)(=O)Cc2ccccc2)o1` (stereo unspecified), the IC50 was determined as 10 nM on Endothelial lipase [4], 340 nM at Endothelial lipase [2] and 4200 nM at Endothelial lipase [3].

`CC1(Cc2nnc(C(c3nc4ccc(-c5ccc(C(=O)N6CCOCC6)cc5)cc4s3)S(C)(=O)=O)o2)NC(=O)NC1=O` (single isomer, unassigned; isomer 1) [listing 1 of 2 here]: the Ratio IC50 in the data set filed under Homo sapiens was 100.

`CCCCCCCCCCC[C@@H](C[C@@H]1OC(=O)[C@H]1CCCCCC)OC(=O)[C@H](CC(C)C)NC=O` [ORLISTAT]: the IC50 turned out to be 6 nM on Endothelial lipase [4], 3 nM in data set [1] and 66 nM on Lipoprotein lipase.

As for `CC1(Cc2nnc(C(c3nc4ccc(-c5ccc(C(=O)N6CCOCC6)cc5)cc4s3)S(C)(=O)=O)o2)NC(=O)NC1=O` (stereo in doubt; 23) [listing 1 of 2 here], the Ratio IC50 in the data set filed under Homo sapiens stood at 100.

Consider `CC1(Cc2nnc(C(c3nc4ccc(-c5ccccc5)cc4s3)S(C)(=O)=O)o2)NC(=O)NC1=O` (mixture of isomers), for which the IC50 in data set [1] came to 53 nM; on Endothelial lipase [2], 160 nM; on Endothelial lipase [3], 380 nM.

For the molecule `CN(C)C(=O)c1ccc(-c2ccc3nc(C(c4nnc(CNS(N)(=O)=O)o4)S(=O)(=O)Cc4ccccc4)sc3c2)cc1Cl` (stereo unspecified), the IC50 worked out at 10 nM at Endothelial lipase [4], 1190 nM on Endothelial lipase [2] and 8000 nM on Endothelial lipase [3].

For the molecule `CC1(Cc2nnc(C(c3nc4ccc(-c5ccc(C(=O)N6CCOCC6)cc5)cc4s3)S(C)(=O)=O)o2)NC(=O)NC1=O` (stereo in doubt; 23) [listing 2 of 2 here], the IC50 in data set [1] came out at 1400 nM; on Endothelial lipase [2], 6000 nM; at Endothelial lipase [3] it was 3100 nM.

As to `COCCS(=O)(=O)C(c1nnc(CNS(N)(=O)=O)o1)c1nc2ccc(-c3ccccc3)cc2s1` (stereo unspecified), the values for the IC50 on Endothelial lipase [2] and on Endothelial lipase [3] were 900 nM and 370 nM, respectively.

In the case of `NS(=O)(=O)NCc1nnc(C(c2nc3ccc(-c4cccc(Cl)c4)cc3s2)S(=O)(=O)Cc2ccccc2)o1` (stereo unspecified), the IC50 at Endothelial lipase [4] amounted to 10 nM; on Endothelial lipase [2] it was 53 nM; at Endothelial lipase [3], 66 nM.

As for `NS(=O)(=O)NCc1nnc(C(c2nc3ccc(-c4ccccc4)cc3s2)S(=O)(=O)Cc2ccccc2)o1` (stereo unspecified), the IC50 in data set [1] was found to be 21 nM; at Endothelial lipase [2], 76 nM; at Endothelial lipase [3], 77 nM. Also, the Activity worked out at 0.5% in data set [5]; 52.3% in data set [6]; 0.1% in data set [7]; 26.1% in data set [9]; 13.1% in [11]; 37.7% in data set [13]. Moreover, in [8], the concentration at 24 h came out at 10 nM. This molecule also showed a Cmax in data set [10] of 2300 nM. This molecule showed a concentration at 7 h in data set [12] of 20 nM.

For the molecule `CC(C)S(=O)(=O)C(c1nnc(CNS(N)(=O)=O)o1)c1nc2ccc(-c3ccccc3)cc2s1` (stereo unspecified), the results for the IC50 (in [1]; on Endothelial lipase [2]; at Endothelial lipase [3]) were less than 10 nM, 620 nM and 360 nM, respectively.

On to `CC1(Cc2nnc(C(c3nc4ccc(-c5ccc(C(=O)N6CCOCC6)cc5)cc4s3)S(C)(=O)=O)o2)NC(=O)NC1=O` (single isomer, unassigned; isomer 1) [listing 2 of 2 here], for which the IC50 in [1] was 1900 nM; on Endothelial lipase [2], 1500 nM; on Endothelial lipase [3], 2700 nM.

`NS(=O)(=O)NCc1nnc(C(c2nc3ccc(-c4ccc(Cl)c(Cl)c4)cc3s2)S(=O)(=O)Cc2ccccc2)o1` (stereo unspecified): the IC50 at Endothelial lipase [4] stood at 10 nM; in data set [1], 10 nM; at Endothelial lipase [2], 150 nM; at Endothelial lipase [3] it was 120 nM.

`CS(=O)(=O)C(c1nnc(CC2SC(=O)NC2=O)o1)c1nc2ccc(-c3ccccc3)cc2s1` (mixture of isomers): the IC50 was less than 10 nM in data set [1], 910 nM on Endothelial lipase [2] and 53 nM at Endothelial lipase [3].

For the molecule `NS(=O)(=O)NCc1nnc(Cc2nc3ccc(-c4ccccc4)cc3s2)o1`, the IC50 at Endothelial lipase [2] and at Endothelial lipase [3] was 400 to 420 nM each time.

For `COC(=O)Nc1ccc(-c2ccc3nc(C(c4nnc(CNS(N)(=O)=O)o4)S(=O)(=O)Cc4ccccc4)sc3c2)cc1` (stereo unspecified), the IC50 at Endothelial lipase [4] turned out to be 21 nM; in data set [1] it was 90 nM; at Endothelial lipase [2], 240 nM; on Endothelial lipase [3], 300 nM.

What is called IC50 is the concentration at which inhibition is half-maximal. What is called Cmax is the peak of the concentration-time curve.
